Results published in article PMC3961306, “Comparison of the Cancer Gene Targeting and Biochemical Selectivities of All Targeted Kinase Inhibitors Approved for Clinical Use” (PLoS ONE, 2014).

Columns and labels:
Experiment in all cases: Kinase profiling in a biochemical assay panel (mobility shift assays and ELISA), %-inhibition at 1 μM; selectivity entropy
[1] = target: panel of more than 300 wild-type and mutant kinases (313 kinase panel) (Homo sapiens, UniProt P11309); details: kinase PIM1; 1 μM
[2] = target: panel of more than 300 wild-type and mutant kinases (313 kinase panel) (Homo sapiens, UniProt P49841); details: kinase GSK3β; compound at 1 μM
[3] = target: T1, panel of more than 300 wild-type and mutant kinases (313 kinase panel) (Homo sapiens, UniProt P51817); details: kinase PRKX; 1 μM
T1 sequence (P51817 1-358): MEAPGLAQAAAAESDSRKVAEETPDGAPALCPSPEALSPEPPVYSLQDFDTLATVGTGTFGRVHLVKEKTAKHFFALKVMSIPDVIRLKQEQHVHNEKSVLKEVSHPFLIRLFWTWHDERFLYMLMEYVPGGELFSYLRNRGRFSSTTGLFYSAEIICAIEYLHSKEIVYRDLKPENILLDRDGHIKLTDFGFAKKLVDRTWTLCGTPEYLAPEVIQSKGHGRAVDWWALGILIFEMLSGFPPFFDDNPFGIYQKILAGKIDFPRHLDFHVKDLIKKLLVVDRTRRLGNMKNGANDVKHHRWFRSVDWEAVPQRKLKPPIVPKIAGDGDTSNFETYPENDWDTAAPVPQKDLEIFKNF

[4] = target: panel of more than 300 wild-type and mutant kinases (313 kinase panel) (Homo sapiens, UniProt Q02779); details: kinase MLK2; 1 μM
[5] = target: panel of more than 300 wild-type and mutant kinases (313 kinase panel) (Homo sapiens, UniProt Q16288); details: kinase TRKC; 1 μM
[6] = target: T2, panel of more than 300 wild-type and mutant kinases (313 kinase panel) (Homo sapiens, UniProt Q8IWQ3); details: kinase BRSK2; 1 μM compound
T2 sequence (Q8IWQ3 1-736): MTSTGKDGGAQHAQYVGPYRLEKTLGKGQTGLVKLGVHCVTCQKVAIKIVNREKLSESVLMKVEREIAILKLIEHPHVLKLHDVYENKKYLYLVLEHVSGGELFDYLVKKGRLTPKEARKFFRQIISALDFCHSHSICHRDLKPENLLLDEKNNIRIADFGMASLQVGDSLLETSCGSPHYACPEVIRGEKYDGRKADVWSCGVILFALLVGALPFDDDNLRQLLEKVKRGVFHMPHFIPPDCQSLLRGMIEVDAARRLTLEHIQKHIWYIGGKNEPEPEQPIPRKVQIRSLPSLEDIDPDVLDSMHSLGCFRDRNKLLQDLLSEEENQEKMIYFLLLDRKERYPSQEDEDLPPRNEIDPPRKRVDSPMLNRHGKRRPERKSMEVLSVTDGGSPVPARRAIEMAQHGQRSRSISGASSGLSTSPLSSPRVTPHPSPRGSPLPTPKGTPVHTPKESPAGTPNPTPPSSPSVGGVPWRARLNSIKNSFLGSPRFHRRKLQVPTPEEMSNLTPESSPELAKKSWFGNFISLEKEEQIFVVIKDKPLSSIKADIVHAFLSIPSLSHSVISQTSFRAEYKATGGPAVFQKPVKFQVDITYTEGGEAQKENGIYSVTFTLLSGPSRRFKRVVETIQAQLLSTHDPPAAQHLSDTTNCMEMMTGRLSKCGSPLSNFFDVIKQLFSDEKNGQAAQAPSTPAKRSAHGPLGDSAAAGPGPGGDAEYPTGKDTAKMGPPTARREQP

[7] = target: panel of more than 300 wild-type and mutant kinases (313 kinase panel) (Homo sapiens, UniProt Q8N568); details: kinase DCAMKL2; compound at 1 μM
[8] = target: T3, panel of more than 300 wild-type and mutant kinases (313 kinase panel) (Homo sapiens, UniProt Q9UF33)
T3 sequence (Q9UF33 23-1036): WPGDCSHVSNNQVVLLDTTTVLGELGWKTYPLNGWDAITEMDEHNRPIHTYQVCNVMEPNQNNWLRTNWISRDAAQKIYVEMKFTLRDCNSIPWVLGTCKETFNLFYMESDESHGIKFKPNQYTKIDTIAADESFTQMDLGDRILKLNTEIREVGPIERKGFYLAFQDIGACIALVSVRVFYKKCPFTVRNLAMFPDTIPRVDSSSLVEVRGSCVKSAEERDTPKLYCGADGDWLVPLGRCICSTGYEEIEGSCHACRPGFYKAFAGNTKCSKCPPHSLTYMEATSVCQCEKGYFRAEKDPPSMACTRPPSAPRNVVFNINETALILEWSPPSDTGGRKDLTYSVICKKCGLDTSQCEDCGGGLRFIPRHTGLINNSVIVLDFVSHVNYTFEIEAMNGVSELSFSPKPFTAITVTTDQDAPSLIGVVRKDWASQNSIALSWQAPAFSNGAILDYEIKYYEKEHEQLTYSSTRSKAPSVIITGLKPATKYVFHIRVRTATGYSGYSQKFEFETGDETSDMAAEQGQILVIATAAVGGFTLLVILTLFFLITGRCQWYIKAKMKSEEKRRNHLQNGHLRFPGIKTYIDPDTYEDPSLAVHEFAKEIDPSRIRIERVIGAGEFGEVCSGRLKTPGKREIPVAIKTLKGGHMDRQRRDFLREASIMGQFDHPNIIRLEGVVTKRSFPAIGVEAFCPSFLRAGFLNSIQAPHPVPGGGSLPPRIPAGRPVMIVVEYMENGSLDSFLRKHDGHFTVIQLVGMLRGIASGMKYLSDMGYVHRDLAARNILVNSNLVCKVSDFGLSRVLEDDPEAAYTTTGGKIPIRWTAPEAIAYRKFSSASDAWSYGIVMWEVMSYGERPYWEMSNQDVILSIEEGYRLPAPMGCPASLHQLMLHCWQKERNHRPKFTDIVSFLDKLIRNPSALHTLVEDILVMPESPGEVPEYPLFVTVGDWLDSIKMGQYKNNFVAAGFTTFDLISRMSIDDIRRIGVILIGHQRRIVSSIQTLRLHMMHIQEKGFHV

Chain of panel of more than 300 wild-type and mutant kinases (313 kinase panel) (Homo sapiens, UniProt Q02779) (Q02779 whole entry, change not shown): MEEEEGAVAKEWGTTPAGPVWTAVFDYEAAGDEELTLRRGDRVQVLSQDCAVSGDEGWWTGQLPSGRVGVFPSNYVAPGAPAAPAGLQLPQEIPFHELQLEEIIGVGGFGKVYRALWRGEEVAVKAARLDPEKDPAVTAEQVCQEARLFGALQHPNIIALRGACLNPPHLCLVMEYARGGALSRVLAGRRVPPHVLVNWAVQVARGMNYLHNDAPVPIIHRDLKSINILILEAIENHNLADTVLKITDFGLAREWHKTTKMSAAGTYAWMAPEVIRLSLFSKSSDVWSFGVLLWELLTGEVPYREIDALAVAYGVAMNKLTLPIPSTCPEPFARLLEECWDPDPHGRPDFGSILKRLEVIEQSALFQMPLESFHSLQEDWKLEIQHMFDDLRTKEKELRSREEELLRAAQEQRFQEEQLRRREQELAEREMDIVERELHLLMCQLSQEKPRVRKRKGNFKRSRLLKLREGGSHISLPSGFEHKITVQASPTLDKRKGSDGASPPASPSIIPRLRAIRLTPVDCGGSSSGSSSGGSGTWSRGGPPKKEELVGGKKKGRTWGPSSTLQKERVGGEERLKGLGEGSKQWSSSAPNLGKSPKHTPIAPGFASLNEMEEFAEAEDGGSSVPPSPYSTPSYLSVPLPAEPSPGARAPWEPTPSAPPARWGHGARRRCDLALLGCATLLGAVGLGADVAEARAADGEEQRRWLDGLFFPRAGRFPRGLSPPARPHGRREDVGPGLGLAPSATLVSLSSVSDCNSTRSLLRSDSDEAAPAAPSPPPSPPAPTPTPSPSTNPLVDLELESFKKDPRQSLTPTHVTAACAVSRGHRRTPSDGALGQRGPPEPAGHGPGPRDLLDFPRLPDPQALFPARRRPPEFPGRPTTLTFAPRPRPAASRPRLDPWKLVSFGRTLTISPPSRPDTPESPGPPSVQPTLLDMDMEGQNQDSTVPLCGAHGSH

Structure (SMILES) | %-inhibition of PIM1 [1] | %-inhibition of GSK3β [2] | %-inhibition of PRKX [3] | %-inhibition of MLK2 [4] | %-inhibition of TRKC [5] | %-inhibition, BRSK2 [6] | %-inhibition of DCAMKL2 [7] | %-inhibition of EPHA6 ([8]; kinase EPHA6, compound at 1 μM) | %-inhibition of EPHA6 ([8]; 1 µM)
CO[C@H]1C[C@@H]2CC[C@@H](C)[C@@](O)(O2)C(=O)C(=O)N2CCCC[C@H]2C(=O)O[C@H]([C@H](C)C[C@@H]2CC[C@@H](OC(=O)C(C)(CO)CO)[C@H](OC)C2)CC(=O)[C@H](C)/C=C(\C)[C@@H](O)[C@@H](OC)C(=O)[C@H](C)C[C@H](C)/C=C/C=C/C=C/1C [temsirolimus] | -8% | -7.62% | -1.9% | 9% | -6.53% | -9% | -4% | 0.437% | –
CC(=O)Nc1cccc(-n2c(=O)n(C3CC3)c(=O)c3c(Nc4ccc(I)cc4F)n(C)c(=O)c(C)c32)c1 [trametinib] | 4.44% | -15% | -1.19% | 5% | -7.43% | 5.38% | -2.4% | – | -2.51%
CCCS(=O)(=O)Nc1ccc(F)c(C(=O)c2c[nH]c3ncc(-c4ccc(Cl)cc4)cc23)c1F [vemurafenib] | -3.41% | 8% | -3.45% | 5% | 5% | -6% | -3.52% | 37% | –
